Among the data in PubChem BioAssay AID720513 (Broad Institute, 2013) are AC40 values, retold here.

Inconclusive results are not listed. Where only a bound is given, the exact number is not on record here.

The test system of the test is U2OS PGC1a acetylation AlphaLISA, overnight. In words: activators raising PGC1a acetylation in cells, dose response, cell-based, cherry-picked samples, set 6 (AID 720513).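 Also: cells made to overexpress flag tagged PGC1a plus GCN5 acetyltransferase by viral infection.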
Turning to `CCOC(=O)CNS(=O)(=O)c1cc(-c2nnc(Nc3ccc4c(c3)OCO4)c3ccccc23)ccc1C`, the AC40 was 1.29 µM.
Then `CCOc1ccc(NC2c3ccccc3C(=O)N2Cc2ccc3c(c2)OCO3)cc1` (stereo not drawn), with 16.3 µM; and `CCOc1ccc(Nc2oc(-c3ccc(Cl)cc3)nc2C#N)cc1`, with 3.09 µM.
Then `O=C(CCc1nc2ccccc2c(=O)[nH]1)Nc1ccc(N2CCCCC2)cc1`, with 4.4 µM; and `Cc1cccc(OC2(c3ccccc3)OC(=O)c3ccccc32)c1C` (stereo not drawn), with 3.37 µM.
The value for `CC1=CC(C)(C)N2C(=O)C3(SCC(=O)N3c3ccc(F)cc3)c3cc(C)cc1c32` (stereo not drawn) was 0.966 µM; that for `CCC(=O)Nc1ccc(C(=O)Cn2ncc(Cl)c(Cl)c2=O)cc1` was 1.63 µM; that for `O=[N+]([O-])c1ccc(S(=O)(=O)c2cccc(C(F)(F)F)c2)nc1` was 0.581 µM.
`CCOC(=O)c1oc2ccc(S(=O)(=O)N3CCC(C)CC3)cc2c1C`: the AC40 was 17.1 µM.
The value for `O=C(NC1CCCCC1)c1cccnc1C(=O)O` was 3.2 µM; that for `COC(=O)c1ccc(NC(=O)c2cccnc2)cc1` was 1.86 µM; that for `N#Cc1ccccc1COC(=O)c1ccc2c(c1)OCCO2` was 5.43 µM.
Then `c1ccc(Cn2nnnc2C(c2cccs2)N2CCCCCC2)cc1` (stereo not drawn), with 14.2 µM.
As for `Cc1ccc(NC(=O)CN(C)S(=O)(=O)c2cccs2)c(Br)c1`, the AC40 was 14.7 µM.
Regarding `COc1ccccc1-c1ccc(C2[C@@H]3CN(S(=O)(=O)c4ccc(C)cc4)C[C@H]2N3)cc1` (stereo partly drawn), the AC40 was 19.7 µM.
Take `Cc1cc2c(cc1S(=O)(=O)N1CCc3ccccc31)NC(=O)CO2`: the AC40 is 2.18 µM.
Consider `CCc1nnc(NC(=O)Cc2ccc(S(=O)(=O)N3CCCCC3)cc2)s1`, for which the AC40 was 16.6 µM.
Then `CCOC(=O)CC(S(=O)(=O)c1ccccc1)S(=O)(=O)c1ccccc1`, with 4.09 µM; and `Cc1ccc2oc(-c3ccc(NC(=O)c4cccnc4)cc3)nc2c1`, with 2.03 µM.
With `CCCCSc1ccc(NC(=O)c2cccnc2)cc1`, the AC40 is 1.78 µM.
With `Cc1ccc(C(=O)c2c[nH]c(C(=O)NCc3cccnc3)c2)cc1`, the AC40 was 2.67 µM.
On to `C[n+]1c2n(c3ccccc31)N=C(c1cc(C(C)(C)C)c(O)c(C(C)(C)C)c1)CS2`, for which the AC40 is 3.5 µM.
The value for `OC(COc1ccc(CNCCc2ccc(C(F)(F)F)cc2)cc1)CN1CCCCC1` (stereo not drawn) was 0.9 µM; that for `CCC(C)(C)n1nnnc1C(c1ccccc1OC)N1CCSCC1` (stereo not drawn) was 1.45 µM; that for `C=C[C@H]1C(C(=O)OCC)=CC[C@@H](c2ccccc2)N1S(=O)(=O)c1ccc(C)cc1` was 0.249 µM.
With `O=C(Nc1cccnc1)c1ccc(Br)s1`, the AC40 is 0.601 µM.
The value for `CC(=O)c1cc(-c2ccccc2)n(CCC(=O)NC2CCCCC2)c1C` was 7.4 µM.
Then `COc1ccc(NC(=O)Cn2ncc(Cl)c(Cl)c2=O)cc1S(=O)(=O)N1CCOCC1`, with 1.6 µM; and `COc1cc(OC)c2c(-c3cccc(-c4cccc(C)c4)c3)cc(=O)oc2c1`, with 1.56 µM; and `O=C(NCc1cccnc1)c1ccc(NC(=O)c2ccc(Br)cc2)cc1`, with less than 0.16 µM.
The value for `CC1CCN(S(=O)(=O)c2ccc(NC(=O)c3ccccc3F)cc2)CC1` was 15.3 µM.
On to `CCn1nc(C)c(CN2CCc3c([nH]c4ccccc34)C2C(C)(C)C)c1C` (stereo not drawn), for which the AC40 was 0.88 µM.
The value for `COC(=O)C[C@@H]1C[C@H]2c3cc(NC(=O)Nc4ccc(C(F)(F)F)cc4)ccc3O[C@H]2[C@H](CO)O1` was 8.45 µM.
Then `COc1ccccc1/C=C1\SC(=O)N(CCC(=O)NCCCn2ccnc2)C1=O`, with 2.07 µM; and `Cc1ccc(S(=O)(=O)N(Cc2ccc(F)cc2)Cc2ccco2)cc1`, with 6.76 µM; and `CCOc1ccccc1CN1CCN(C2CCC2)CC1CCO` (stereo not drawn), with 6.23 µM.
Then `O=C1Nc2cc(S(=O)(=O)N3CCCC3)ccc2N2CCCC12` (stereo not drawn), with 16.6 µM.
On to `Fc1ccc(-c2nn3c(C4COc5ccccc5O4)nnc3s2)cc1` (stereo not drawn), for which the AC40 was 1.01 µM.
The value for `C[C@@H]1CN([C@H](C)CO)C(=O)c2c(c3ccccc3n2C)-c2ccccc2CO[C@@H]1CN(C)C(=O)Nc1ccc2c(c1)OCO2` was 10.7 µM; that for `O=C(Cc1ccccc1)N1CCN(c2ccc([N+](=O)[O-])cc2)CC1` was 0.523 µM.
The value for `COc1cccc(C(=O)/C=C/c2ccc(OCC#N)c(OC)c2)c1` was 6.74 µM; that for `COc1ccc(C#Cc2cnc3c(c2)C(=O)N([C@H](C)CO)C[C@H](C)[C@H](CN(C)S(=O)(=O)c2cccs2)O3)cc1OC` was 18.2 µM; that for `CCOC(=O)c1ccccc1NS(=O)(=O)c1ccc(OCC)cc1` was 3.3 µM.
Then `O=C(COc1ccc(Cl)cc1)NCCCNC(=O)c1cccnc1`, with 1.22 µM.
With `COc1ccccc1-c1ccc2c(c1)C(C)(Cc1ccc(OC(F)(F)F)cc1)C(=O)N2` (stereo not drawn), the AC40 was 2.47 µM.
The value for `Cc1c(OCc2ccc(C(=O)O)cc2)ccc2c(-c3ccccc3)cc(=O)oc12` was 7.28 µM.
As for `CCOc1ccc(N(C)S(=O)(=O)c2cc(-c3cc(C)no3)ccc2OC)cc1`, the AC40 is 5.29 µM.
The value for `CC(=O)c1ccc(N2CCN(c3ccc(S(=O)(=O)NCCN(C)C)cc3[N+](=O)[O-])CC2)cc1` was 6.58 µM; that for `COc1ccc(OC)c(NC(=O)CSc2nnc(-c3cccnc3)s2)c1` was 0.792 µM; that for `Cc1c(C(=O)OCC(=O)c2c(N)n(CC(C)C)c(=O)n(C)c2=O)oc2ccccc12` was 8.24 µM.
The value for `O=C(CS(=O)CC(=O)Nc1cccc2c1CCCC2)Nc1ccc(F)cc1` (stereo not drawn) was 10.9 µM.
Then `Cc1cc(C(=O)NNS(=O)(=O)c2ccc(F)cc2)nn1C(C)(C)C`, with 1.09 µM; and `Cc1ccc(C(=O)N2CCN(c3ccc(NC(=O)c4ccc(Br)o4)cc3)CC2)cc1`, with 3.72 µM.
For `COc1cccc(N(CC(=O)NCc2cccnc2)S(C)(=O)=O)c1`, the AC40 was 14.2 µM.
The value for `CC1CCCCN1C(=O)/C(=C\c1ccccc1)c1ccccc1` (stereo not drawn) was 8.57 µM; that for `C[C@H]1CN([C@@H](C)CO)C(=O)c2cccc(NC(=O)c3cnccn3)c2O[C@H]1CN(C)Cc1ccc(C(=O)Nc2ccccc2N)cc1` was less than 2.6 µM.
The value for `CCOC(=O)C1=CC[C@@H](c2ccc([N+](=O)[O-])cc2)N(S(=O)(=O)c2ccc(C)cc2)[C@H]1c1ccccc1` was 5.13 µM; that for `CCN1CCN(C(=O)c2ccc3c(=O)n(CCC4=CCCCC4)c(=O)[nH]c3c2)CC1` was 1.94 µM.
Then `Cc1cc(C(F)(F)F)n(-c2nc(C(=O)NNS(=O)(=O)c3ccccc3[N+](=O)[O-])cs2)n1`, with 3.43 µM; and `Cc1ccc(-c2nnc(N3CCN(C(=O)COc4ccccc4)CC3)c3ccccc23)cc1`, with 0.734 µM.
On to `CC(=O)n1cc([C@@H]2C=C(C(=O)Nc3ccccc3)O[C@H](OCc3ccc(CO)cc3)C2)c2ccccc21`, for which the AC40 is 4.65 µM.
As to `C[C@@H]1CN([C@@H](C)CO)C(=O)c2c(c3ccccc3n2C)-c2ccccc2CO[C@@H]1CN(C)C(=O)c1ccccc1`, the AC40 is 5.25 µM.
With `O=C(NCc1ccccc1)c1ccc(NC(=O)C2CC2)cc1`, the AC40 was 11.1 µM.
Then `COC(=O)CSc1nc(-c2ccccc2)cc(-c2ccco2)c1C#N`, with 6.11 µM; and `O=C1CC(Sc2nnc(-c3ccccc3O)o2)C(=O)N1c1ccccc1` (stereo not drawn), with 7.23 µM; and `Cc1cc2cc3c(cc2nc1SCC(=O)OC(C)C)OCCO3`, with 11.5 µM.
Then `OC(c1ccccc1)(C1CCCCC1)C(CN1CCOCC1)c1ccccc1` (stereo not drawn), with 0.634 µM; and `CCOc1ccc2c(c1)C(C)=CC(C)(C)N2S(=O)(=O)c1ccc(C)cc1`, with 0.781 µM.
The value for `O=C(Nc1ccc(OCC(=O)N2CCC(Cc3ccccc3)CC2)cc1)c1ccco1` was 3.17 µM; that for `COc1ccc(C(c2ccc(OC)cc2)C(Cl)(Cl)Cl)cc1` was 0.729 µM; that for `C=CCn1c(SCC(=O)NC(=O)NCc2ccco2)nc2sc(CC)cc2c1=O` was 11.3 µM.
On to `CCSc1ccc(NC(=O)c2cccnc2)cc1`, for which the AC40 is 1.65 µM.
The value for `O=C(NCc1csc(-c2cccs2)n1)c1cccc(Cl)c1` was 6.13 µM; that for `O=C1OC(Oc2ccc(Br)cc2)(c2ccccc2)c2ccccc21` (stereo not drawn) was 1.46 µM; that for `C/C=C(/C)C(=O)O[C@@H]1c2cc(OC)c(OC)c(OC)c2-c2c(cc3c(c2OC)OCO3)C[C@H](C)[C@]1(C)O` was 1.48 µM.
The value for `CNC(=O)c1cccn(Cc2ccc(C(F)(F)F)cc2)c1=O` was 17.5 µM; that for `O=C(NC(Nc1cc(C(F)(F)F)ccc1Cl)C(=O)c1ccccc1)c1ccccc1` (stereo not drawn) was 13.6 µM.
The value for `CCOC(=O)C1=C[C@@H](C(C)(C)C)N(S(=O)(=O)c2ccc(C)cc2)[C@H]1c1cccc2ccccc12` was 0.543 µM.
Take `COC(=O)c1ccc(NC(=O)C23CC4CC(C2)CC(n2cnc(Cl)n2)(C4)C3)cc1`: the AC40 is 1.82 µM.
The value for `CC(C)(C)n1nnnc1C(CCc1ccccc1)N1CCC2(CC1)C(=O)NCN2c1ccccc1` (stereo not drawn) was 5.44 µM.
The value for `COc1ccc(NC(=O)C(=O)NCCC2CCCCN2S(=O)(=O)c2cccs2)cc1` (stereo not drawn) was 17.9 µM.
Then `CCN(CC)c1ccc(N)cc1S(=O)(=O)Nc1ccccc1OC`, with 3 µM; and `COc1ccc(Br)cc1CNc1ccccc1`, with 8.98 µM.
As to `COC(=O)c1cc(S(=O)(=O)N2CCN(c3ccc(C(C)=O)cc3)CC2)c[nH]1`, the AC40 is 4.17 µM.
The value for `Cc1ccc(O)c(C(=O)c2cnc3c(c2)CN(CCC(C)C)C(=O)N3)c1` was 10.2 µM; that for `COc1cc(-c2cnc3c(NC(C)=O)cc(-c4ccccc4CN(C)C)cn23)cc(OC)c1OC` was 8.19 µM.
The value for `O=C(NCCC1=CCCCC1)c1coc(=O)c(Br)c1` was 1.37 µM; that for `COc1cc(CN2CCCC(CO)(Cc3cccc(Cl)c3)C2)cc2c1OCO2` (stereo not drawn) was 8.62 µM; that for `O=C(c1ccccc1)c1nn(-c2ccc(Cl)cc2)c(=O)cc1C(F)(F)F` was 0.451 µM.
The value for `O=C(Nc1ccc(-c2noc(-c3cccs3)n2)cc1)c1cccnc1` was 1.27 µM.
Regarding `CCOC(=O)C1=CC[C@@H](c2ccccc2)N(S(=O)(=O)c2ccc(C)cc2)[C@H]1c1cccc(OC)c1`, the AC40 is 9.62 µM.
The value for `Cc1ccc(CC(=O)N2CCN(c3ccc([N+](=O)[O-])cc3)CC2)cc1` was 0.312 µM; that for `O=C(CC1SC(=NCc2ccccc2)NC1=O)Nc1ccccc1` (stereo not drawn) was 0.632 µM.
